Measured values: US20170189484A1, “CEACAM5 PEPTIDES FOR CROHN'S DISEASE” (ICAHN SCHOOL OF MEDICINE AT MOUNT SINAI, priority 2014, published 2017)

Columns and labels:
Type in all cases: cell-based, human
[1] = tested on: peripheral blood CD8+ T cells; assay: In vitro suppression assay, peripheral blood CD8+ T cells (CFSE CD4+ T cell proliferation); conditions: for suppressor activity acquired by stimulated CD8+ T cells (suppression of CD4+ T cell proliferation): 10 μg/mL, 3 days, co-culture 1:1 with CFSE-labeled CD3/CD28-stimulated CD4+ T cells; for percent suppression of CD4+ T cell proliferation (suppressive activity): single peptide 10 μg/mL, normalized against unstimulated CD8+ T cells
Excerpt: To identify the N-domain peptides that trigger the activation of CD8+ T cells with the suppressor phenotype, peripheral blood CD8^+ T cells and peripheral blood CD4^+ T cells were selected using CD8^+ and CD4^+ T-cell selection kits (Stemcell Technologies, Vancouver, Canada), respectively.
Anti-CD3/CD28 beads were used as positive controls. Cells were then washed, counted, and added at a ratio of 1:1 (2×10^6) to peripheral CD4^+ T cells labeled with carboxyfluorescein succinimidyl ester (CFSE) (Invitrogen, CA), and either unstimulated or stimulated with anti-CD3/CD28 beads.
(§1) Proliferation of CD4^+ T-cells measured by CFSE dilution was evaluated by flow cytometry. CD4+ T cells were labeled with PE anti-CD4 antibody. Percent suppression was calculated based on equation 1:
(§2) % Supp=100*[1−(%Exp/%Control)] (1)
(§3) where: • %Supp=percent suppression • %Exp=the percentage of proliferating CD4+ T cells in the experimental population • % Control=the percentage of proliferating CD4+ T cells in the control population
These peptides were selected due to their activity in the phosphorylation assay. […] Peptides 13 and 15 were also shown to activate suppression, although to a more modest extent (˜10% suppressive activity).
Finally, peptides a-d (see FIG. 7A) were also evaluated using the same procedure, incubating the cells with each single peptide (10 μg/mL).

[2] = tested on: LcK phosphorylation in peripheral blood CD8+ T cells; assay: In cell western blot LcK phosphorylation assay; conditions: 10 μg/mL, 5, 10, 15 minutes
Experimental: The library of peptides 1-20 was first evaluated by western blot for their ability to activate CD8+ T cells, as indicated by the ability to stimulate LcK phosphorylation (“pLcK”). Peripheral blood isolated CD8′ T cells (2×10^6) were seeded in a 96-well flat-bottom plate and starved in RPMI serum free medium overnight at 37° C. The next day and prior to performing the experiments, the plate was placed on ice for 15 minutes. Cells were stimulated with OKT8 (5 μg/mL) (a known CD8+ T cell activator), purified CEACAM5 peptide (10 μg/mL), the entire library of peptides (10 μg/mL), Pool 1 (10 μg/mL), Pool 2 (10 μg/mL), Pool 3 (10 μg/mL), or each single N-domain peptide (10 μg/mL). Unstimulated cells were also evaluated for each condition. Prior to these experiments a titration curve was performed for the entire library of peptides. A range of concentration between 1 and 100 μg/mL was tested.
Stimulation was stopped using a 4% formaldehyde buffer for 20 minutes followed by centrifugation for 10 minutes at 1,500 rpm. Permeabilization was performed by washing the cells with 1×PBS containing 0.1% Triton X-100 for 5 minutes per wash. After permeabilization, cells were incubated for 1 hour with a blocking buffer (Odyssey Blocking buffer-LICOR) followed by the primary antibodies (goat anti-actin and rabbit anti-pLcK) overnight at 4° C. The next day, cells were washed 5 times with 1×PBS containing 0.1% Tween 20, incubated for 1 hour at room temperature with the secondary antibodies (IRDye 800CW donkey anti goat IgG, IRDye 680 CW donkey anti rabbit IgG), and then washed five times. Wells were dried and the plate was scanned using an Odyssey LiCOR system. The software ImageJ was used for quantification of pLcK. Each value was calculated using actin expression as a house keeping gene and taking into consideration any background noise. […]

[3] = tested on: Crohn's disease lamina propria CD8+ T cells; assay: In vitro suppression assay, Crohn's disease lamina propria CD8+ T cells (suppression of CD4+ T cell proliferation); conditions: for average suppression percentage (suppressor phenotype): Crohn's disease lamina propria CD8+ cells, relative to CD4+ proliferation with normal unstimulated CD8+ T cells
Experimental: (§4) Lamina propria lymphocytes were isolated from patients undergoing surgery for Crohn's disease (CD) or colon cancer (representing a normal (NL) T cell population). Lamina propria CD8+ T cells were isolated after overnight incubation and incubated with CEACAM5 peptide for 3 days. CD8+ T cells were then washed and co-cultured with CFSE-CD3/CD28-stimulated CD4+ T cells for 3 days. Suppression of CD4+ T cell proliferation was measured on the 7th day.
as §1, §2, §3
as §4, with “peptide or peptide 12” for “peptide”

[4] = tested on: CD8-associated LcK kinase in CD8+ T cells; assay: Flow cytometry LcK phosphorylation assay; conditions: 2, 8, 10, 15 minutes at 37° C., peptide 12 at 20 μg/ml
Experimental: To confirm the ability of peptide 12 to activate CD8+ T cells, a second LcK phosphorylation assay was conducted using flow cytometry. CD8+ T cells were treated for different time points (2, 8, 10, 15 minutes) at 37° C. with H2O2 at 10 mM, CEACAM5 supernatant from PIPLC-293T cells expressing CEACAM5, and peptide 12 (20 μg/ml). Stimulation was stopped by fixing with 4% formaldehyde for 10 minutes at room temperature. Subsequently, cells were permeabilized with ice-cold methanol for 20 minutes, washed with PBS containing 0.2% FBS, and then stained with anti-phospho-Lck Ab (BD Biosciences, San Jose, Calif.). The cells were then re-suspended in PBS plus 0.2% FBS, data were acquired using the FACScan system (LSRFortessa, BD Biosciences), and analyzed with FlowJo analysis software (Ashland, Oreg.).

[5] = tested on: normal lamina propria CD8+ T cells; assay: Cytokine IL10 production in lamina propria CD8+ T cells; conditions: cultured 3 days; supernatant assessed
Experimental: Cytokine production in lamina propria CD8+ T cells was evaluated. Normal lamina propria CD8+ and CD4+(control) T cells were cultured for 3 days in presence of OKT8 (control) or either CEACAM5 or peptide 12. The supernatant was then assessed for cytokine production.

[6] = tested on: normal lamina propria CD8+ T cells; assay: In vitro suppression assay, normal (colon cancer) lamina propria CD8+ T cells; conditions: normal condition (colon cancer biopsies); CD8+ T cells incubated 3 days, vs absence of CEACAM5
Experimental: as §4
as §4, with “peptide or peptide 12” for “peptide”

“GYVIGTQQATPGPAYSGREI (Fragment of the CEACAM5 N-terminal domain) [peptide c]” was tested, and the “suppressor activity acquired by stimulated CD8+ T cells (suppression of CD4+ T cell proliferation)” value (“suppressor activity acquired” below) [1] was “acquired suppressor activity”.

With H-ASLLIQNIIQNDTGF-OH [peptide 15] the “percent suppression of CD4+ T cell proliferation (suppressive activity)” value [1] was about 10%.

With H-GTQQATPGPAYSGRE-OH [peptide 11] the “CD8+ T cell activation (LcK phosphorylation, p-LcK)” value [2] was “induced phosphorylation of LcK at after 10 minutes”.

In the case of H-IGYVIGTQQATPGPA-OH [peptide 10], the “CD8+ T cell activation (LcK phosphorylation, p-LcK)” value [2] is reported as “induced phosphorylation of LcK at after 10 minutes”.

For H-TPGPAYSGREIIYPN-OH [peptide 12], the “average suppression percentage (suppressor phenotype)” value [3] was 64%, the “CD8+ T cell activation (LcK phosphorylation, p-LcK)” value [2] was “greatest effect in the activation of CD8+ T cells” and the “suppressor activity acquired” value [1] was “acquired suppressor activity at the same extant as those activated with full-length CEACAM5”. For the same molecule, the “phosphorylation of CD8-associated LcK kinase” value [4] was “induce phosphorylation of CD8-associated LcK kinase” and the IL10 production [5] was “increased IL10”.

With H-YSGREIIYPNASLLI-OH [peptide 13] the “percent suppression of CD4+ T cell proliferation (suppressive activity)” value [1] was about 10%.

For “TQQATPGPAYSGREIITPNA (Fragment of the CEACAM5 N-terminal domain) [peptide d]”, the “suppressor activity acquired” value [1] was “acquiring suppressor activity to the same extent as cells activated with peptide 12”.

B1: CEACAM5: carcinoembryonic antigen family member 5 (GenBank Accession No. NP_001278413), full-length purified glycoprotein used as comparator (protein)
chain: KLTIESTPFNVAEGKEVLLLVHNLPQHLFGYSWYKGERVDGNRQIIGYVIGTQQATPGPAYSGREIIYPNASLLIQNIIQNDTGFYTLHVIKSDLVNEEATGQFRVYPELPKPSISSNNSKPVEDKDAVAFTCEPETQDATYLWWVNNQSLPVSPRLQLSNGNRTLTLFNVTRNDTASYKCETQNPVSARRSDSVILNVLYGPDAPTISPLNTSYRSGENLNLSCHAASNPPAQYSWFVNGTFQQSTQELFIPNITVNNSGSYTCQAHNSDTGLNRTTVTTITVYEPPKPFITSNNSNPVEDEDAVALTCEPEIQNTTYLWWVNNQSLPVSPRLQLSNDNRTLTLLSVTRNDVGPYECGIQNELSVDHSDPVILNVLYGPDDPTISPSYTYYRPGVNLSLSCHAASNPPAQYSWLIDGNIQQHTQELFISNITEKNSGLYTCQANNSASGHSRTTVKTITVSAELPKPSISSNNSKPVEDKDAVAFTCEPEAQNTTYLWWVNGQSLPVSPRLQLSNGNRTLTLFNVTRNDARAYVCGIQNSVSANRSDPVTLDVLYGPDTPIISPPDSSYLSGANLNLSCHSASNPSPQYSWRINGIPQQHTQVLFIAKITPNNNGTYACFVSNLATGRNNSIVKSITVSASGTSPGLSA
B1 was tested, and the “average suppression percentage (suppressor phenotype)” value [3] was 63%, the “suppressive function of lamina propria CD8+ T cells” value ([3]; Crohn's disease, CD8+ T cells incubated 3 days) was “stimulates the suppressive function” and the “suppressive function of lamina propria CD8+ T cells” value [6] was “increased suppressive function”. For the same molecule, the “phosphorylation of CD8-associated LcK kinase” value [4] was “induce phosphorylation of CD8-associated LcK kinase” and the IL10 production [5] was “increased IL10”.
